Values joined by “and” are separate entries in the source; they are usually repeats but may differ in a detail not shown here. Equal values may be shown once. Read-outs that look alike come from different tables or passages of the source.
Experiments:
PKC beta 2 (PKCb2) = PKC beta 2 (PKCb2) (Homo sapiens, UniProt P05771); assay: In vitro kinase assay, PKC beta 2; type: biochemical; details: 10 μM ATP
Description: (§1) Supplementary Table 4. In vitro kinase assay showing the IC 50 concentration of ENDX and
(§2) of the 12 PKC family members.
(§3) (1 picture or pasted object on this page, not shown here)

PKC gamma (PKCg) = PKC gamma (PKCg) (Homo sapiens, UniProt P05129); assay: In vitro kinase assay, PKC gamma; type: biochemical; details: 10 μM ATP
Description: as §1, §2, §3

PKC iota (PKCi) = PKC iota (PKCi) (Homo sapiens, UniProt P41743); assay: In vitro kinase assay, PKC iota; type: biochemical; details: 10 μM ATP
Description: as §1, §2, §3

PKC nu (PKCn/PRKD3) = PKC nu (PKCn/PRKD3) (Homo sapiens, UniProt O94806); assay: In vitro kinase assay, PKC nu; type: biochemical; details: 10 μM ATP
Description: as §1, §2, §3

PKC thetha (PKCq) = PKC thetha (PKCq) (Homo sapiens, UniProt Q04759); assay: In vitro kinase assay, PKC thetha; type: biochemical; details: 10 μM ATP
Description: . The IC50 concentrations of these drugs in inhibiting PKC kinase activity are provided in Supplementary Table 4.
as §1, §2
*: not available due to no inhibition or compound activity that could not be fit to an IC50 curve.
Staurosporine serves as the positive control.
as §3

MCF7AC1 cells = assay: IncuCyte Annexin V apoptosis assay, MCF7AC1; type: cell-based, human; details: CSS medium, 48 h
Experimental: (§4) MCF7AC1 and T47D-LTED cells were plated at a density of 2000 cells per well in CSS medium for 24 h. Cells were then co-treated for 48 h with vehicle or drug, IncuCyte Annexin V green reagent (#4642, 1:300), an early-stage apoptosis marker, and IncuCyte NucLight rapid red reagent (#4717, 1:500), a dye that stains all cell nuclei red, in CSS medium. MCF7AC1^caAKT cells were plated at a cell density of 2000 cells per well in CSS medium in the absence or presence of cumate for 48 h and then co-treated with vehicle or drug, Annexin V green and NucLight rapid red reagents in the absence or presence of cumate for an additional 48 h in CSS medium.

[1] = system: AKT phosphorylation (pAKT^Ser473, pAKT^Thr308, p-AKT substrates) in MCF7AC1 cells; assay: Immunoblot of AKT signaling and PARP cleavage, MCF7AC1; type: cell-based, human
Experimental: The ENDX hydrochloride utilized in this study was synthesized in collaboration between Mayo Clinic and National Institute of Health (NIH). Estrogen deprived MCF7AC1 were treated with vehicle control or ENDX (National Cancer Institute) for 24 h. […] For the insulin (Sigma-Aldrich, #I0516) experiments, MCF7AC1 and T47D cells were maintained in serum-free medium for 24 h prior to pretreatment with vehicle control or drugs for 2 h followed by treatment with 100 nM insulin for 1 h.
Protein lysates were prepared using the RIPA lysis buffer system (ChemCruz #sc-24948) and quantified using the DC^TM Protein Assay reagents (Bio-Rad #5000112). Equal amounts of protein lysates were separated on 10% Criterion gels (Bio-Rad #3450112), transferred to PVDF membranes (Bio-Rad #1620177), blocked in TBST-5% milk and probed with primary antibodies listed in Supplementary Table 5, at the indicated dilutions. Membranes were incubated with HRP-conjugated anti-rabbit (CST #7074) or anti-mouse (CST #7076) secondary antibodies and visualized using chemiluminescent West Pico (Thermo Scientific #34580) or West Femto (Thermo Scientific #34096) reagents and a Li-Cor Odyssey® XF imager. Protein lysates from the MCF7AC1 xenograft model were obtained from a previous study. Quantitation of the protein bands signal intensity was performed using the NIH ImageJ image analysis software (https://imagej.nih.gov/ij///index.html). For the quantitation of the phospho protein levels, we first normalized total protein levels to β-actin loading control and used these values to normalize the phospho protein levels and compared change in protein expression levels relative to vehicle control normalized to 1.0. For the quantitation of total protein levels, we normalized the total protein levels to β-actin and compared change in expression levels relative to vehicle control normalized to 1.0. All blots were processed in parallel and derived from the same experiments. Unprocessed immunoblot images are provided in Supplementary Figs. 9–13.

BT549 cells = assay: Crystal violet growth assay, BT549; type: cell-based, human; details: day seven
Description: Supplementary Figure 8. […]
ANOVA. b, Effects of ENDX on cell proliferation at the indicated concentrations on day seven of
treatment. […]

MCF7AC1^caAKT cells = assay: IncuCyte Annexin V apoptosis assay, MCF7AC1^caAKT; type: cell-based, human; details: CSS medium, 5 µM, 48 h
Experimental: as §4
Molecular cloning was performed for the generation of catalytically active AKT-expressing MCF7AC1 cells. For this purpose, vector pCDNA3.1+ containing an N-terminal SRCMyr signal AKT ORF and C-terminal hemagglutinin (HA)-tag was provided as a kind gift from Dr. Haojie Huang, Ph.D, Mayo Clinic, Rochester, MN. The constitutively active AKT (caAKT)-HA insert was excised using NheI/EcoRV restriction digest, gel purified and cloned into the NheI//PmeI site of an SBI (System biosciences, Palo Alto, CA) vector with modified restriction sites. Sanger sequencing was performed by Azenta/Genewiz, (South Plainfield, NJ) to confirm in frame sequence. […]

[2] = mice, cited from earlier work; for Cmax: read-out: Plasma Cmax
[3] = system: MCF7AC1 aromatase inhibitor-sensitive and -resistant models; design: method as in PMID 32430040; details: cited from earlier work
[4] = design: method as in PMID 24853369, PMID 28977607; details: low (10 mg/kg) and high (50 mg/kg) doses; cited from earlier work
[5] = CSS medium, 24 h, not at 0.01 and 0.1 μM

Chain of PKC iota (PKCi) (P41743 whole entry): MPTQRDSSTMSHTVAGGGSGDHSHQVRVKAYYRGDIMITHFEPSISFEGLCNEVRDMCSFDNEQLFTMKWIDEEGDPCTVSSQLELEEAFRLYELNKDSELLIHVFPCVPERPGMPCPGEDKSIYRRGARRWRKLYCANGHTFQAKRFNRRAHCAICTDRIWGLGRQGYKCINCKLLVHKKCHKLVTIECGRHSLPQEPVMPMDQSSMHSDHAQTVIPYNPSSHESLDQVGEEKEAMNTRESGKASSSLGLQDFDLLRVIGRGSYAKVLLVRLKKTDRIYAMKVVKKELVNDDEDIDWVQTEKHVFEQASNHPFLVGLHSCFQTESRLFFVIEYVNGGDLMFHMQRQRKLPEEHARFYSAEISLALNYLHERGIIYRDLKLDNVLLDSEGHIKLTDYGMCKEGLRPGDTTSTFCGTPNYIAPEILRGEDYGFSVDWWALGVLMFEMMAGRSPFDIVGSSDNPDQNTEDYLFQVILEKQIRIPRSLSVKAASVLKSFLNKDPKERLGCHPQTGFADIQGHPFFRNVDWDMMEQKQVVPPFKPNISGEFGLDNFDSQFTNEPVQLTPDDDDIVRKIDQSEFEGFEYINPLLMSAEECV
Chain of PKC beta 2 (PKCb2) (P05771 1-673 isoform P05771-2): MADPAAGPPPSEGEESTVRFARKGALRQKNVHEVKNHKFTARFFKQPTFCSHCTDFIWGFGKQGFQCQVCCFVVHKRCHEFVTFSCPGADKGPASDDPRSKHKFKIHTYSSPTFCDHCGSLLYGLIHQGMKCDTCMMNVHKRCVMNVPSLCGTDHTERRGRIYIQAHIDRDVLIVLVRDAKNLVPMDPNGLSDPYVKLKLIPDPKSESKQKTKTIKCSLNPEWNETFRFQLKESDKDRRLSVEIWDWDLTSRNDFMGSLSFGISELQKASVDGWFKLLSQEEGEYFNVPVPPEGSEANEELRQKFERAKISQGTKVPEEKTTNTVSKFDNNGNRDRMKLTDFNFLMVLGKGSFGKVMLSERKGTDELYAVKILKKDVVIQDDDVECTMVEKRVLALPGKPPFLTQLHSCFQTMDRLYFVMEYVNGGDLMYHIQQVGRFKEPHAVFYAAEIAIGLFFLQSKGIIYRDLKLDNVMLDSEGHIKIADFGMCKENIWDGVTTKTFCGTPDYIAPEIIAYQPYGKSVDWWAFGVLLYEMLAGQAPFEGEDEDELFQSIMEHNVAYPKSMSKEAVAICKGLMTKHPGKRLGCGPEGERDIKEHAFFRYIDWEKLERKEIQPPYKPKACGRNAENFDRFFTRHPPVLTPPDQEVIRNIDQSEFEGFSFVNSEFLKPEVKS
Chain of PKC thetha (PKCq) (Q04759 whole entry): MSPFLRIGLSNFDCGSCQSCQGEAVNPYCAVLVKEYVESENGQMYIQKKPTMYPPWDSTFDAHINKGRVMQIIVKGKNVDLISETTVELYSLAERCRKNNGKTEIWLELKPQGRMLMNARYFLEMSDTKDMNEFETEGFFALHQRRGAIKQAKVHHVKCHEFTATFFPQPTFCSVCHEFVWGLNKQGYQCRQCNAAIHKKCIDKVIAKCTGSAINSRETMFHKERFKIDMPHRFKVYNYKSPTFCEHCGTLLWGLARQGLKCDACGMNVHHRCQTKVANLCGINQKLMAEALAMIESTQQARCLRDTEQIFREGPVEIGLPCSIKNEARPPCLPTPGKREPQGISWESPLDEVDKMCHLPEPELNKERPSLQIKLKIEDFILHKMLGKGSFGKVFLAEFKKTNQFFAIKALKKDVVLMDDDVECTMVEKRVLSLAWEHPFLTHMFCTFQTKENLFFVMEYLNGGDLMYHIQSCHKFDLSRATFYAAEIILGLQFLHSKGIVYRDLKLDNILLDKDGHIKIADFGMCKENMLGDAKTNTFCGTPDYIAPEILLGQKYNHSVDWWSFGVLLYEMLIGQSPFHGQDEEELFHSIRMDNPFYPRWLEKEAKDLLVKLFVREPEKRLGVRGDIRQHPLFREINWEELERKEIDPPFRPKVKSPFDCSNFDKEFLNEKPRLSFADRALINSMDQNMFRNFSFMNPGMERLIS
Chain of PKC nu (PKCn/PRKD3) (O94806 whole entry): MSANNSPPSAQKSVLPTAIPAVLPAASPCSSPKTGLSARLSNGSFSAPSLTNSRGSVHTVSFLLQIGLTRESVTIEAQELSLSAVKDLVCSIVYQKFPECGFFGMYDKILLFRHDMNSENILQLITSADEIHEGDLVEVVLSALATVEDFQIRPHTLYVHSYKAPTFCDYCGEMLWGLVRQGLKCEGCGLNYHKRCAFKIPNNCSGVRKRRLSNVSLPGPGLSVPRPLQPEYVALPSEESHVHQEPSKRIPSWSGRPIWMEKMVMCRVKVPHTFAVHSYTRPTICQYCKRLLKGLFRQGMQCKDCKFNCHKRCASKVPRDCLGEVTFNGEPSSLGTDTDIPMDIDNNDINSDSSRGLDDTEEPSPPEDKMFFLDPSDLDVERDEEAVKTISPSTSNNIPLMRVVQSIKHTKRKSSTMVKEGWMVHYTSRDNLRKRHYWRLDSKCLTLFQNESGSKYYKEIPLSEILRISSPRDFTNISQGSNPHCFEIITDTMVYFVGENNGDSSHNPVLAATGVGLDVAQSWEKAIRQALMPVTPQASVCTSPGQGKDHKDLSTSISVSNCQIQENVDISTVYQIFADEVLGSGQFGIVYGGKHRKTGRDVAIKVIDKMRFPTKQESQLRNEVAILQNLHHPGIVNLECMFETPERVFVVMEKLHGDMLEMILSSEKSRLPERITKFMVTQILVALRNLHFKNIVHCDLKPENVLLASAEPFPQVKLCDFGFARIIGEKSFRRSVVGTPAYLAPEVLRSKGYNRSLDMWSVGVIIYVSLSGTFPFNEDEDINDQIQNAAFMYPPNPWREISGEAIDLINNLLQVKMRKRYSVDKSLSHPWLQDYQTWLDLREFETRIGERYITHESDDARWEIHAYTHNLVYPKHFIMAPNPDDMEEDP

## CC/C(=C(\c1ccc(O)cc1)c1ccc(OCCNC)cc1)c1ccccc1 [ENDX, Z-endoxifen]
PKC beta 2 (PKCb2)
  IC50: 43.3 µM
PKC gamma (PKCg)
  IC50: 49.7 µM
PKC iota (PKCi)
  IC50: > 50 µM
PKC nu (PKCn/PRKD3)
  IC50: 26.4 µM
PKC thetha (PKCq)
  IC50: 41.8 µM
MCF7AC1 cells; 0 to 10 µM tested
  Concentrations that induced apoptosis: ≥ 2.5 µM
MCF7AC1 cells; ENDX 5 µM, TAM 0.1 µM, ICI 0.1 µM
  Effect on apoptosis: induced apoptosis
[1]; CSS medium, 24 h, 5 µM
  Effect on AKT^Thr308 phosphorylation: did not alter AKT^Thr308 phosphorylation
[1]; CSS medium, 24 h, 0.01, 0.1 and 5 µM tested
  Concentration increasing PARP cleavage: 5 µM
[1]; CSS medium, 24 h, 0.01 and 0.1 µM
  Effect on AKT^Thr308 phosphorylation: stimulated AKT^Thr308 phosphorylation
[1]; [5]
  Concentration attenuating AKT^Ser473 phosphorylation: 5 µM
  Concentration reducing phosphorylation of AKT substrates: 5 µM
[1]; serum starved, 100 nM insulin 1 h, 5 μM
  Effect on insulin-stimulated AKT^Thr308 phosphorylation: able to block AKT^Thr308 phosphorylation
[1]; serum starved, 2 h pretreatment, 100 nM insulin 1 h, 5 µM
  Effect on insulin-stimulated phosphorylation of AKT substrates: diminished insulin-stimulated phosphorylation of AKT substrates
[1]; serum starved, 2 h pretreatment, 100 nM insulin 1 h, not at 0.01 and 0.1 μM
  Concentration blocking insulin-stimulated AKT^Ser473 phosphorylation: 5 µM
[1]; serum starved, 2 h pretreatment, 200 nM PMA 20 min, 5 μM
  Effect on PMA-stimulated AKT^Ser473 phosphorylation: reduced AKT^Ser473 phosphorylation
BT549 cells
  Concentrations at which growth was inhibited: > 7.5 µM
MCF7AC1^caAKT cells; absence of cumate
  Effect on apoptosis: induced apoptosis
MCF7AC1^caAKT cells; presence of cumate
  Effect of caAKT expression on ENDX-induced apoptosis: significantly diminished the ability of ENDX to induce apoptosis
[2]; 25 mg/kg for five consecutive days, 25 mg/kg
  Plasma concentration: 73.1 ± 16.8 ng/ml and 0.20 ± 0.04 µM
[2]; 100 mg/kg for five consecutive days, 100 mg/kg
  Plasma concentration: 1700 ± 60 ng/ml and 4.55 ± 0.16 µM
[2]; single dose 25 mg/kg
  Plasma Cmax: 103 ± 97 ng/mL
  Cmax: 280 ± 260 nM
[2]; single dose 75 mg/kg
  Plasma Cmax: 660 ± 511 ng/mL
  Cmax: 1770 ± 1370 nM
[3]
  In vivo antitumor activity: superior in vivo antitumor activity compared to TAM and letrozole
[4]
  Effects on the bone: increasing cancellous and cortical bone mass, reducing bone turnover, and protecting against bone loss

Reference: paper PMC10730845, “Endoxifen downregulates AKT phosphorylation through protein kinase C beta 1 inhibition in ERα+ breast cancer” (NPJ Breast Cancer, 2023)
